Source: patent US10409869B2, “(R)- and (S)-1-(3-(3-N,N-dimethylaminocarbonyl)phenoxyl-4-nitrophenyl)-1-ethyl-N,N'-bis (ethylene)phosphoramidate, compositions and methods for their use and preparation” (OBI Pharma, Inc., priority 2015, dated 2019)

Tests used:
[1] = Serum chemistry in monkeys, 2 mg/kg 30-min IV infusion; format: in vivo, Cynomolgus monkeys
Protocol: (§1) TH 3423 and TH 3424 were tested in […] naïve monkeys (1 male and one female for each compound at 2 mg/kg) with 30-min intravenous infusion, TK sampling: on Day 1 and Day 15: 0.25, 0.5, 0.75, 1 and 2 hr post infusion initiation. Serum chemistry and hematology: pre-dose (Day 1), day 5, day 8 (pre-dose), day 15 (pre-dose), day 22 and day 28. Clinical observation: Daily during the study, total 35 days. Food consumption: Daily during the study, total 35 days. Bodyweight measurement: Twice weekly for five weeks.

[2] = Body weight in monkeys, 2 mg/kg 30-min IV infusion; format: in vivo, Cynomolgus monkeys; settings: Day 1, Mean
Protocol: as §1

C[C@@H](OP(=O)(N1CC1)N1CC1)c1ccc([N+](=O)[O-])c(Oc2cccc(C(=O)N(C)C)c2)c1 (single isomer, unassigned) [TH3423]
A/G ([1]; female, Day 1 (pre-dose)): 1.8 | ALB ([1]; female, Day 1 (pre-dose)): 42 g/L | ALP ([1]; female, Day 1 (pre-dose)): 205.5 U/L | ALT ([1]; female, Day 1 (pre-dose)): 41.7 U/L | AST ([1]; female, Day 1 (pre-dose)): 43.3 U/L | BUN ([1]; female, Day 1 (pre-dose)): 4.06 mM | CK ([1]; female, Day 1 (pre-dose)): 342 U/L | CREA ([1]; female, Day 1 (pre-dose)): 95 µM | Ca ([1]; female, Day 1 (pre-dose)): 2.39 mmol/L | GLB ([1]; female, Day 1 (pre-dose)): 24 g/L | Glu ([1]; female, Day 1 (pre-dose)): 6.03 mM | K ([1]; female, Day 1 (pre-dose)): 6.14 mmol/L | Na ([1]; female, Day 1 (pre-dose)): 146 mmol/L | TBIL ([1]; female, Day 1 (pre-dose)): 0.0 µM | TC ([1]; female, Day 1 (pre-dose)): 2.48 mM | TG ([1]; female, Day 1 (pre-dose)): 0.45 mmol/L | TP ([1]; female, Day 1 (pre-dose)): 66.0 g/L | γ-GT ([1]; female, Day 1 (pre-dose)): 41.5 U/L | A/G ([1]; female, Day 8 (pre-dose)): 1.3 | ALB ([1]; female, Day 8 (pre-dose)): 40.9 g/L | ALP ([1]; female, Day 8 (pre-dose)): 190.3 U/L | ALT ([1]; female, Day 8 (pre-dose)): 25.5 U/L | AST ([1]; female, Day 8 (pre-dose)): 57.7 U/L | BUN ([1]; female, Day 8 (pre-dose)): 7.61 mM | CK ([1]; female, Day 8 (pre-dose)): 126 U/L | CREA ([1]; female, Day 8 (pre-dose)): 120 µM | Ca ([1]; female, Day 8 (pre-dose)): 2.47 mmol/L | GLB ([1]; female, Day 8 (pre-dose)): 30.9 g/L | Glu ([1]; female, Day 8 (pre-dose)): 2.13 mM | K ([1]; female, Day 8 (pre-dose)): 4.83 mmol/L | Na ([1]; female, Day 8 (pre-dose)): 149 mmol/L | TBIL ([1]; female, Day 8 (pre-dose)): 0.4 µM | TC ([1]; female, Day 8 (pre-dose)): 3.01 mM | TG ([1]; female, Day 8 (pre-dose)): 1.17 mmol/L | TP ([1]; female, Day 8 (pre-dose)): 71.8 g/L | γ-GT ([1]; female, Day 8 (pre-dose)): 37.0 U/L | A/G ([1]; female, Day 15 (pre-dose)): 1.7 | ALB ([1]; female, Day 15 (pre-dose)): 34.2 g/L | ALP ([1]; female, Day 15 (pre-dose)): 123.6 U/L | ALT ([1]; female, Day 15 (pre-dose)): 21.1 U/L | AST ([1]; female, Day 15 (pre-dose)): 76.7 U/L | BUN ([1]; female, Day 15 (pre-dose)): 5.96 mM | CK ([1]; female, Day 15 (pre-dose)): 78 U/L | CREA ([1]; female, Day 15 (pre-dose)): 69 µM | Ca ([1]; female, Day 15 (pre-dose)): 2.36 mmol/L | GLB ([1]; female, Day 15 (pre-dose)): 20.7 g/L | Glu ([1]; female, Day 15 (pre-dose)): 2.51 mM | K ([1]; female, Day 15 (pre-dose)): 4.81 mmol/L | Na ([1]; female, Day 15 (pre-dose)): 128.17 mmol/L | TBIL ([1]; female, Day 15 (pre-dose)): 1.4 µM | TC ([1]; female, Day 15 (pre-dose)): 2.02 mM | TG ([1]; female, Day 15 (pre-dose)): 0.84 mmol/L | TP ([1]; female, Day 15 (pre-dose)): 54.9 g/L | γ-GT ([1]; female, Day 15 (pre-dose)): 29.4 U/L | A/G ([1]; male, Day 1 (pre-dose)): 1.8 | ALB ([1]; male, Day 1 (pre-dose)): 46.9 g/L | ALP ([1]; male, Day 1 (pre-dose)): 746.4 U/L | ALT ([1]; male, Day 1 (pre-dose)): 45.0 U/L | AST ([1]; male, Day 1 (pre-dose)): 37.0 U/L | BUN ([1]; male, Day 1 (pre-dose)): 3.47 mM | CK ([1]; male, Day 1 (pre-dose)): 146 U/L | CREA ([1]; male, Day 1 (pre-dose)): 66 µM | Ca ([1]; male, Day 1 (pre-dose)): 2.54 mmol/L | GLB ([1]; male, Day 1 (pre-dose)): 26 g/L | Glu ([1]; male, Day 1 (pre-dose)): 3.12 mM | K ([1]; male, Day 1 (pre-dose)): 6.92 mmol/L | Na ([1]; male, Day 1 (pre-dose)): 143 mmol/L | TBIL ([1]; male, Day 1 (pre-dose)): 5.2 µM | TC ([1]; male, Day 1 (pre-dose)): 2.1 mM | TG ([1]; male, Day 1 (pre-dose)): 0.24 mmol/L | TP ([1]; male, Day 1 (pre-dose)): 72.9 g/L | γ-GT ([1]; male, Day 1 (pre-dose)): 78.4 U/L | A/G ([1]; male, Day 8 (pre-dose)): 1.1 | ALB ([1]; male, Day 8 (pre-dose)): 39.1 g/L | ALP ([1]; male, Day 8 (pre-dose)): 540.3 U/L | ALT ([1]; male, Day 8 (pre-dose)): 21.0 U/L | AST ([1]; male, Day 8 (pre-dose)): 40.8 U/L | BUN ([1]; male, Day 8 (pre-dose)): 26.8 mM | CK ([1]; male, Day 8 (pre-dose)): 153 U/L | CREA ([1]; male, Day 8 (pre-dose)): 141 µM | Ca ([1]; male, Day 8 (pre-dose)): 2.55 mmol/L | GLB ([1]; male, Day 8 (pre-dose)): 37.1 g/L | Glu ([1]; male, Day 8 (pre-dose)): 5.28 mM | K ([1]; male, Day 8 (pre-dose)): 5.86 mmol/L | Na ([1]; male, Day 8 (pre-dose)): 112 mmol/L | TBIL ([1]; male, Day 8 (pre-dose)): 9.8 µM | TC ([1]; male, Day 8 (pre-dose)): 1.72 mM | TG ([1]; male, Day 8 (pre-dose)): 2.25 mmol/L | TP ([1]; male, Day 8 (pre-dose)): 76.2 g/L | γ-GT ([1]; male, Day 8 (pre-dose)): 37.6 U/L | body weight [2]: 3.50
